Source: patent USRE40086E1, “Method for treating bacterial infection with novel 7-substituted-9-substituted amino 6-demethyl-6-deoxytetracyclines” (Wyeth Holdings Corporation, priority 1991, dated 2008)
≈ marks a conversion by molar mass, not a printed value.

Assays:
Experiment in all cases: MIC, agar dilution
Type in all cases: cell-based
[1] = system: S. aureus Smith (Sensitive); conditions: S. aureus Smith (Sensitive)
[2] = system: S. aureus IVES 1983 (meth. resistant); conditions: S. aureus IVES 1983 (meth. resistant)
[3] = system: E. coli UBMS 89-1 (tetM); conditions: E. coli UBMS 89-1 (tetM)
[4] = system: S. aureus IVES 2943 (meth. resistant); conditions: S. aureus IVES 2943 (meth. resistant)
[5] = system: S. aureus UBMS 90-1 (tetM); conditions: S. aureus UBMS 90-1 (tetM)
[6] = system: E. coli UBMS 88-1 (tetB); conditions: E. coli UBMS 88-1 (tetB)
[7] = system: E. coli UBMS 88-2 (Sensitive); conditions: E. coli UBMS 88-2 (Sensitive)
[8] = system: S. aureus UBMS 88-7 (tetK); conditions: S. aureus UBMS 88-7 (tetK)
[9] = system: S. haemolyticus AVAH 88-3; conditions: S. haemolyticus AVAH 88-3
[10] = system: S. aureus UBMS 90-3 (Sensitive); conditions: S. aureus UBMS 90-3 (Sensitive)
[11] = system: E. coli ATCC 25922; conditions: E. coli ATCC 25922
[12] = system: S. aureus UBMS 88-4 (Sensitive); conditions: S. aureus UBMS 88-4 (Sensitive)
[13] = system: S. aureus UBMS 88-5 (tetM); conditions: S. aureus UBMS 88-5 (tetM)
[14] = system: S. aureus ATCC 29213 (Sensitive); conditions: S. aureus ATCC 29213 (Sensitive)
[15] = system: E. coli UBMS 89-2 (Sensitive); conditions: E. coli UBMS 89-2 (Sensitive)
[16] = system: E. faecalis ATCC 29212; conditions: E. faecalis ATCC 29212
[17] = system: S. aureus UBMS 90-2 (tetM); conditions: S. aureus UBMS 90-2 (tetM)
[18] = system: E. faecalis 12201; conditions: E. faecalis 12201

| SMILES | MIC [1] | MIC [2] | MIC [3] | MIC [4] | MIC [5] | MIC [6] | MIC [7] | MIC [8] | MIC [9] | MIC [10] | MIC [11] | MIC [12] | MIC [13] | MIC [14] | MIC [15] | MIC [16] | MIC [17] | MIC [18] |
| --- | --- | --- | --- | --- | --- | --- | --- | --- | --- | --- | --- | --- | --- | --- | --- | --- | --- | --- |
| CN(C)c1cc(NS(=O)(=O)c2ccc([N+](=O)[O-])cc2)c(O)c2c1CC1CC3C(N(C)C)C(O)=C(C(N)=O)C(=O)C3(O)C(O)=C1C2=O (stereo not drawn) [AA, 7-(Dimethylamino)-9-[[(4-nitrophenyl)sulfonyl]amino]-6-demethyl-6-deoxytetracycline] | 0.12 µg/mL (≈ 0.182 µM) | 8 µg/mL (≈ 12.2 µM) | 4 µg/mL (≈ 6.08 µM) | 4 µg/mL (≈ 6.08 µM) | 0.5 µg/mL (≈ 0.76 µM) | 16 µg/mL (≈ 24.3 µM) | 8 µg/mL (≈ 12.2 µM) | 2 µg/mL (≈ 3.04 µM) | 2 µg/mL (≈ 3.04 µM) | 0.06 µg/mL (≈ 0.0912 µM) | 4 µg/mL (≈ 6.08 µM) | 0.12 µg/mL (≈ 0.182 µM) | 0.12 µg/mL (≈ 0.182 µM) | 0.12 µg/mL (≈ 0.182 µM) | 16 µg/mL (≈ 24.3 µM) | 0.12 µg/mL (≈ 0.182 µM) | 0.12 µg/mL (≈ 0.182 µM) | – |
| CN(C)c1cc(NC(=O)c2ccccc2F)c(O)c2c1CC1CC3C(N(C)C)C(O)=C(C(N)=O)C(=O)C3(O)C(O)=C1C2=O (stereo not drawn) [S, 7-(Dimethylamino)-9-[(2-fluorobenzoyl)amino]-6-demethyl-6-deoxytetracycline] | 1 µg/mL (≈ 1.68 µM) | 4 µg/mL (≈ 6.73 µM) | – | 8 µg/mL (≈ 13.5 µM) | 4 µg/mL (≈ 6.73 µM) | >32 µg/mL | >32 µg/mL | 8 µg/mL (≈ 13.5 µM) | 4 µg/mL (≈ 6.73 µM) | 1 µg/mL (≈ 1.68 µM) | >32 µg/mL | 2 µg/mL (≈ 3.36 µM) | 2 µg/mL (≈ 3.36 µM) | 0.5 µg/mL (≈ 0.841 µM) | >32 µg/mL | 4 µg/mL (≈ 6.73 µM) | 1 µg/mL (≈ 1.68 µM) | 4 µg/mL (≈ 6.73 µM) |
| COc1ccc(C(=O)Nc2cc(N(C)C)c3c(c2O)C(=O)C2=C(O)C4(O)C(=O)C(C(N)=O)=C(O)C(N(C)C)C4CC2C3)cc1 (stereo not drawn) [Q, 7-(Dimethylamino)-9-[(4-methoxybenzoyl)amino)-6-demethyl-6-deoxytetracycline] | 4 µg/mL (≈ 6.59 µM) | 16 µg/mL (≈ 26.4 µM) | – | 8 µg/mL (≈ 13.2 µM) | 8 µg/mL (≈ 13.2 µM) | >32 µg/mL | >32 µg/mL | 16 µg/mL (≈ 26.4 µM) | 8 µg/mL (≈ 13.2 µM) | 4 µg/mL (≈ 6.59 µM) | >32 µg/mL | 8 µg/mL (≈ 13.2 µM) | 8 µg/mL (≈ 13.2 µM) | 1 µg/mL (≈ 1.65 µM) | >32 µg/mL | 8 µg/mL (≈ 13.2 µM) | 8 µg/mL (≈ 13.2 µM) | 8 µg/mL (≈ 13.2 µM) |
| CN(C)c1cc(NC(=O)c2ccccc2)c(O)c2c1CC1CC3C(N(C)C)C(O)=C(C(N)=O)C(=O)C3(O)C(O)=C1C2=O (stereo not drawn) [P, 9-(Benzoylamino)-7-(dimethylamino)-6-demethyl-6-deoxytetracycline] | 1 µg/mL (≈ 1.73 µM) | 8 µg/mL (≈ 13.9 µM) | – | 16 µg/mL (≈ 27.7 µM) | 4 µg/mL (≈ 6.94 µM) | >32 µg/mL | >32 µg/mL | 8 µg/mL (≈ 13.9 µM) | 4 µg/mL (≈ 6.94 µM) | 1 µg/mL (≈ 1.73 µM) | >32 µg/mL | 4 µg/mL (≈ 6.94 µM) | 4 µg/mL (≈ 6.94 µM) | 0.25 µg/mL (≈ 0.434 µM) | >32 µg/mL | 4 µg/mL (≈ 6.94 µM) | 4 µg/mL (≈ 6.94 µM) | 8 µg/mL (≈ 13.9 µM) |
| CC(=O)Nc1nc(C)c(S(=O)(=O)Nc2cc(N(C)C)c3c(c2O)C(=O)C2=C(O)C4(O)C(=O)C(C(N)=O)=C(O)C(N(C)C)C4CC2C3)s1 (stereo not drawn) [GG, 9-[[[(2-Acetylamino)-4-methyl-5-thiazolyl]sulfonyl]amino]-7-(dimethylamino)-6-demethyl-6-deoxytetracycline] | 2 µg/mL (≈ 2.9 µM) | 32 µg/mL (≈ 46.3 µM) | 32 µg/mL (≈ 46.3 µM) | >32 µg/mL | 32 µg/mL (≈ 46.3 µM) | >32 µg/mL | >32 µg/mL | 32 µg/mL (≈ 46.3 µM) | – | 2 µg/mL (≈ 2.9 µM) | >32 µg/mL | 4 µg/mL (≈ 5.79 µM) | 16 µg/mL (≈ 23.2 µM) | 0.5 µg/mL (≈ 0.724 µM) | >32 µg/mL | 1 µg/mL (≈ 1.45 µM) | 4 µg/mL (≈ 5.79 µM) | – |
